Assay type in all cases: cell-based
In test [1] the test system is Wnt activity (Sp5-Luc reporter, SW480 colon carcinoma cells). Nature of the test: Screening assay for Wnt activity: Sp5-Luc reporter gene assay in SW480 cells. The settings on record: Homo sapiens; for EC50: SW480 Sp5-Luc reporter, overnight incubation; for inhibition at 10 µM: SW480, read-out: percent inhibition at 10 μM. Put shortly:
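SW480 colon carcinoma cells stably carrying Sp5 promoter (eight TCF/LEF sites)-driven firefly luciferase, plated at 4,000 cells/well in 1% FBS medium and incubated overnight at 37° C. Luminescence normalised to DMSO-only cells; EC50 from four-parameter variable-slope nonlinear regression.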
For orientation: A reporter such as luciferase makes a cellular process visible.

In the next test the test system is SW480 colon cancer cells. The test is described as follows: Cell viability assay (CellTiter-Blue) in SW480 colon cancer cells. To be noted: Homo sapiens; for EC50: 96 h, SW480 cell viability, four days incubation; for inhibition at 10 µM: SW480, read-out: percent inhibition at 10 μM. Put shortly: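 Fluorescence from resazurin reduced to resorufin by metabolically active cells was the read-out, taken after ~3 h with CellTiter-Blue.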

The subject of test [2] is Primary human fibroblasts derived from IPF patients (LL29 cells). Nature of the test: Inhibition of the fibrotic process: αSMA staining in TGF-β1-treated LL29 fibroblasts. To be noted: Fibroblast; for EC50: 96 h, LL29 cells, TGF-β1 20 ng/mL, 4 days, % αSMA-positive cells; for inhibition at 10 µM: read-out: percent inhibition at 10 μM. Put shortly:
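LL29 IPF-patient lung fibroblasts plated in F12 with 1% FBS, treated with TGF-β1 plus compound; TGF-β1/DMSO wells served as controls. After 4 days incubation, SYTOX green (1 μM final) added for 30 min at room temperature; αSMA staining used as fibrosis read-out.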

Test [3] deals with primary human mesenchymal stem cells (hMSCs). Nature of the test: Induction of chondrogenesis in hMSCs (nodule imaging, Rhodamine B / Nile Red). To be noted: 6 days; for EC50: concentration required to induce 50% levels of chondrogenesis vs TGF-β3, read-out: Conc (nM) of 50% TGF-β3 activity; for Emax: relative to TGF-β3 (10 ng/mL) positive control, read-out: Max. Activity as % TGF-β3 activity. The text has this:
Representative compounds were screened using primary human mesenchymal stem cells (hMSCs) to determine their ability to induce chondrogenesis (process by which cartilage is developed).
Primary human mesenchymal stem cells (hMSCs) were purchased from Lonza (Walkersville, Md.) and expanded in Mesenchymal Stem Cell Growth Media (Lonza). Cells between passage 3 and 6 were used for the experiments.
Area of nodules in each well was normalized to the average of 3 DMSO treated wells on the same plate using Excel (Microsoft Inc.). The normalized averages (fold change over DMSO) of 2 or 3 replicate wells for each compound concentration were calculated. Due to solubility limitations of some of the compounds, curve fitting was incomplete leading to inaccurate EC50 determinations.
Using TGF-β3 as a positive control, the concentration of representative compounds required to induce 50% levels of chondrogenesis is reported. In addition, the maximum activity of each compound and the respective dose that each compound reached maximum chondrogenesis activity is reported.

In the next test the test system is IL-6 (THP-1 cells). The test is described as follows: IL-6 inhibition in THP-1 monocytes (HTRF). The settings on record: Homo sapiens; for EC50: IL-6 inhibition, THP-1 cells, HTRF, 10-point dose-response starting from 10 μM; for inhibition at 10 µM: THP-1, read-out: percentage in parentheses printed under EC50 >10. Put shortly: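 THP-1 cells serum-reduced (1% FBS, 24 h), plated 5000/well, stimulated with 500 ng/mL […] after 2 h and incubated a further 22 h at 37 °C. Secreted IL-6 quantified by HTRF (665/620 nm ratio), normalized to DMSO; EC50 from four-parameter fit, duplicates.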
In general terms: Time-resolved FRET reads energy transfer from a long-lived donor to a nearby acceptor.

Take `CN1CCN(c2cncc3[nH]c(-c4n[nH]c5ccc(-c6cncc(CNCc7ccccc7)c6)cc45)cc23)CC1` [Compound 248]: the EC50 in test [1] was determined as 3340 nM; in the test on SW480 colon cancer cells, 3630 nM; in test [2], 1160 nM; in test [3], 30 nM; with IL-6 (THP-1 cells) it was 3590 nM. Besides, the Emax in test [3] came to 101%.
Take `Cc1ccncc1-c1ccc2[nH]nc(-c3cc4ccncc4[nH]3)c2c1` [Compound 257, 5-(4-Methylpyridin-3-yl)-3-(1H-pyrrolo[2,3-c]pyridin-2-yl)-1H-indazole]: the EC50 in test [1] came to 191 nM; with SW480 colon cancer cells, 109 nM; in test [2] it was 484 nM; in test [3] it was 300 nM; in the test with IL-6 (THP-1 cells), 26 nM. Further, the Emax in test [3] amounted to 161%.
On to `CCCC(=O)Nc1cncc(-c2ccc3[nH]nc(-c4cc5ccncc5[nH]4)c3c2)c1` [Compound 269, N-(5-(3-(1H-Pyrrolo[2,3-c]pyridin-2-yl)-1H-indazol-5-yl)pyridin-3-yl) butyramide], for which the EC50 in test [1] worked out at 452 nM; in the test with SW480 colon cancer cells, 986 nM; in test [2] it was 410 nM; in test [3], 900 nM; with IL-6 (THP-1 cells) it was 22 nM. In test [3], the Emax worked out at 152%.
For the compound `c1cc2cc(-c3n[nH]c4ccc(-c5cncc(CNCC6CCCC6)c5)cc34)[nH]c2cn1` [Compound 277, 1-(5-(3-(1H-Pyrrolo[2,3-c]pyridin-2-yl)-1H-indazol-5-yl)pyridin-3-yl)-N-(cyclopentylmethyl)methanamine], the EC50 stood at 1460 nM in test [1], 1390 nM in the test on SW480 colon cancer cells, 1390 nM in test [2] and 31 nM in the test on IL-6 (THP-1 cells). Moreover, the Emax in test [3] was 49%.
Turning to `CN(C)c1cncc(-c2ccc3[nH]nc(-c4cc5c(-c6ccoc6)cncc5[nH]4)c3c2)c1` [Compound 315, 5-(3-(4-(Furan-3-yl)-1H-pyrrolo[2,3-c]pyridin-2-yl)-1H-indazol-5-yl)-N,N-dimethylpyridin-3-amine], the EC50 came out at 1450 nM in test [1]; 559 nM with SW480 colon cancer cells; 1510 nM in test [2]; 300 nM in test [3]; 505 nM in the test with IL-6 (THP-1 cells). Moreover, in test [3], the Emax is 69%.
In the case of `CCCCC(=O)Nc1cncc(-c2ccc3[nH]nc(-c4cc5c(-c6ccoc6)cncc5[nH]4)c3c2)c1` [Compound 327], the EC50 in test [1] is 915 nM; in the test on SW480 colon cancer cells it was 298 nM; in test [2], 1340 nM; in test [3] it was 30 nM; in the test on IL-6 (THP-1 cells) it was 689 nM. Moreover, the Emax in test [3] came to 122%.
As for `O=C(Nc1cncc(-c2ccc3[nH]nc(-c4cc5c(-c6cccs6)cncc5[nH]4)c3c2)c1)C1CC1` [Compound 356, N-(5-(3-(4-(Thiophen-2-yl)-1H-pyrrolo[2,3-c]pyridin-2-yl)-1H-indazol-5-yl)pyridin-3-yl)cyclopropanecarboxamide], the EC50 in test [1] was 86 nM; with SW480 colon cancer cells it was 117 nM; in test [2], 83 nM; in test [3], 10 nM; in the test with IL-6 (THP-1 cells) it was 14 nM. Further, in test [3], the Emax was 156%.
In the case of `c1ccc(CNCc2cncc(-c3ccc4[nH]nc(-c5cc6c(-c7cccs7)cncc6[nH]5)c4c3)c2)cc1` [Compound 360], the EC50 came to 578 nM in test [1]; 835 nM in the test with SW480 colon cancer cells; 187 nM in test [2]; 10 nM in test [3]; 57 nM in the test with IL-6 (THP-1 cells). In test [3], the Emax was 57%.
As for `CCC(=O)Nc1cncc(-c2ccc3[nH]nc(-c4cc5c(-c6cc(F)cc(CNS(C)(=O)=O)c6)cncc5[nH]4)c3c2)c1` [Compound 477, N-(5-(3-(4-(3-Fluoro-5-(methylsulfonamidomethyl)phenyl)-1H-pyrrolo[2,3-c]pyridin-2-yl)-1H-indazol-5-yl)pyridin-3-yl)propionamide], the EC50 in test [1] is 244 nM; in the test on SW480 colon cancer cells, 901 nM; in test [2], 1640 nM; in the test on IL-6 (THP-1 cells), 56 nM. Also, the Emax in test [3] was 29%.
In the case of `CCNCc1cncc(-c2ccc3[nH]nc(-c4cc5c(-c6cc(F)cc(CNS(C)(=O)=O)c6)cncc5[nH]4)c3c2)c1` [Compound 482, N-(3-(2-(5-(5-((Ethylamino)methyl)pyridin-3-yl)-1H-indazol-3-yl)-1H-pyrrolo[2,3-c]pyridin-4-yl)-5-fluorobenzyl)methanesulfonamide], the inhibition at 10 µM in test [1] was 29.8%; in the test on SW480 colon cancer cells it was 24.3%; in test [2], 17.1%. Also, the EC50 in test [1] was more than 10000 nM; with SW480 colon cancer cells it was more than 10000 nM; in test [2], more than 10000 nM; in test [3], 100 nM; with IL-6 (THP-1 cells), 187 nM. In addition, in test [3], the Emax worked out at 58%.
Take `CS(=O)(=O)NCc1cc(F)cc(-c2cncc3[nH]c(-c4n[nH]c5ccc(-c6cncc(NC(=O)C7CCC7)c6)cc45)cc23)c1` [Compound 497, N-(5-(3-(4-(3-Fluoro-5-(methylsulfonamidomethyl)phenyl)-1H-pyrrolo[2,3-c]pyridin-2-yl)-1H-indazol-5-yl)pyridin-3-yl)cyclobutanecarboxamide]: the EC50 in test [1] turned out to be 554 nM; with SW480 colon cancer cells it was 1100 nM; in test [2] it was 5430 nM; with IL-6 (THP-1 cells) it was 198 nM. Moreover, in test [3], the Emax amounted to 15%.
On to `Fc1cccc(-c2cncc3[nH]c(-c4n[nH]c5ccc(C6CCNCC6)cc45)cc23)c1` [Compound 505, 3-(4-(3-Fluorophenyl)-1H-pyrrolo[2,3-c]pyridin-2-yl)-5-(piperidin-4-yl)-1H-indazole], for which the EC50 in test [1] came out at 3230 nM; in the test with SW480 colon cancer cells, 4150 nM; in test [2] it was 2500 nM; in test [3], 2700 nM; in the test with IL-6 (THP-1 cells), 5430 nM. Further, the Emax in test [3] amounted to 51%.
As for `Cn1cc(-c2ccc3[nH]nc(-c4cc5c(-c6cccnc6)cncc5[nH]4)c3c2)cn1` [Compound 556, 5-(1-Methyl-1H-pyrazol-4-yl)-3-(4-(pyridin-3-yl)-1H-pyrrolo[2,3-c]pyridin-2-yl)-1H-indazole], the EC50 in test [1] was 250 nM; in the test on SW480 colon cancer cells it was 506 nM; in test [2], more than 10000 nM; in test [3], 30 nM; in the test with IL-6 (THP-1 cells) it was more than 10000 nM. The inhibition at 10 µM in test [2] came out at 0%; in the test on IL-6 (THP-1 cells), 44.3%. Moreover, in test [3], the Emax came to 65%.
As for `Cc1ncc(-c2ccc3[nH]nc(-c4cc5c(-c6ccncc6)cncc5[nH]4)c3c2)n1C` [Compound 573, 5-(1,2-Dimethyl-1H-imidazol-5-yl)-3-(4-(pyridin-4-yl)-1H-pyrrolo[2,3-c]pyridin-2-yl)-1H-indazole], the EC50 is 2900 nM in test [1], more than 10000 nM in the test with SW480 colon cancer cells, 2160 nM in test [2] and more than 10000 nM with IL-6 (THP-1 cells). Further, the inhibition at 10 µM came to 30.3% with SW480 colon cancer cells and 11% in the test with IL-6 (THP-1 cells). Besides, the Emax in test [3] is 28%.
Turning to `CN1CCN(c2cncc3[nH]c(-c4n[nH]c5ccc(-c6cncc(NC(=O)CC7CCNCC7)c6)cc45)cc23)CC1` [Compound 641, N-(5-(3-(4-(4-Methylpiperazin-1-yl)-1H-pyrrolo[2,3-c]pyridin-2-yl)-1H-indazol-5-yl)pyridin-3-yl)-2-(piperidin-4-yl)acetamide], the inhibition at 10 µM in test [1] is 6.7%; in the test with SW480 colon cancer cells it was 11.9%; with IL-6 (THP-1 cells) it was 43.7%. Also, the EC50 is more than 10000 nM in test [1]; more than 10000 nM with SW480 colon cancer cells; 6440 nM in test [2]; 100 nM in test [3]; more than 10000 nM with IL-6 (THP-1 cells). Further, the Emax in test [3] turned out to be 289%.
With `c1cc2cc(-c3n[nH]c4ccc(-c5cncc(OCCN6CCCC6)c5)cc34)[nH]c2cn1` [Compound 658, 5-(5-(2-(Pyrrolidin-1-yl)ethoxy)pyridin-3-yl)-3-(1H-pyrrolo[2,3-c]pyridin-2-yl)-1H-indazole], the EC50 in test [1] was found to be 1840 nM; in the test with SW480 colon cancer cells it was 3150 nM; in test [2], 925 nM; with IL-6 (THP-1 cells), 134 nM. Further, the Emax in test [3] amounted to 45%.

The record behind these values is US20180228780A1, “3-(1H-PYRROLO[2,3-C]PYRIDIN-2-YL)-1H-INDAZOLES AND THERAPEUTIC USES THEREOF” (Samumed, LLC, priority 2015, published 2018).
